Measurements: PubChem BioAssay (NCI)
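Grown in 96-well plates, cells were treated for 48 hours with each compound at five concentrations. Insufficient inhibition: endpoint recorded as highest concentration tested. The concentration for 50% growth inhibition is given as GI50. At the TGI there is no net growth.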

What was measured:
Experiment in all cases: DTP human tumour cell line panel, 48 h
[1] = test system: K-562 leukemia
[2] = test system: M14 melanoma
[3] = test system: MOLT-4 leukemia
[4] = test system: NCI-H522 lung
[5] = test system: NCI/ADR-RES ovarian
[6] = test system: OVCAR-3 ovarian
[7] = test system: OVCAR-4 ovarian
[8] = test system: OVCAR-5 ovarian
[9] = test system: RPMI-8226 leukemia
[10] = test system: SR leukemia

## CC(=O)OC1Oc2ccccc2-c2oc(=O)c(-c3cc4ccc(N(C)C)cc4oc3=O)cc21 (stereo not drawn)
[1]
  GI50: 2.98 µM
  TGI: > 100 µM
[2]
  GI50: 17.9 µM
  TGI: 66.1 µM
[3]
  GI50: 2.53 µM
  TGI: 18.1 µM
[4]
  GI50: 11.9 µM
  TGI: 30.6 µM
[5]
  GI50: 6.11 µM
  TGI: 34.7 µM
[6]
  GI50: 10.1 µM
  TGI: 23.2 µM
[7]
  GI50: 1.29 µM
  TGI: 24 µM
[8]
  GI50: 13.2 µM
  TGI: 30.8 µM
[9]
  GI50: 0.392 µM
  TGI: 15 µM
[10]
  GI50: 1.75 µM
  TGI: 14.5 µM

## CN(C)P(=O)(/C(N)=N/Nc1ccc([N+](=O)[O-])cc1)N(C)C
[1]
  TGI: > 100 µM
[2]
  TGI: > 100 µM
[3]
  TGI: > 100 µM
[4]
  TGI: > 100 µM
[6]
  TGI: > 100 µM
[7]
  TGI: > 100 µM
[8]
  TGI: > 100 µM
[9]
  TGI: > 100 µM
[10]
  TGI: > 100 µM

## O=C(N/N=C/c1cccc(O)c1O)c1ccccc1
[1]
  GI50: 1.29 µM
  TGI: > 100 µM
[2]
  GI50: 0.695 µM
  TGI: 11.5 µM
[3]
  GI50: 0.362 µM
  TGI: > 39.2 µM
[4]
  GI50: 0.323 µM
  TGI: 2.25 µM
[5]
  GI50: 0.648 µM
  TGI: > 100 µM
[6]
  GI50: 0.369 µM
  TGI: > 100 µM
[7]
  GI50: 0.312 µM
  TGI: > 29.5 µM
[8]
  GI50: 3.71 µM
  TGI: > 100 µM
[9]
  GI50: 1.3 µM
  TGI: > 100 µM
[10]
  GI50: 0.412 µM
  TGI: > 76 µM

## O=C(c1cccc(O)c1O)c1cn(Cc2ccc(F)cc2)c2cccc(O)c12
[1]
  GI50: 3.56 µM
  TGI: > 37.7 µM
[2]
  GI50: 3.43 µM
  TGI: 13.4 µM
[3]
  GI50: 0.84 µM
  TGI: 10.3 µM
[4]
  GI50: 1.38 µM
  TGI: 8.08 µM
[5]
  GI50: 2.59 µM
  TGI: 15.2 µM
[6]
  GI50: 3.27 µM
  TGI: 18.1 µM
[7]
  GI50: 3.13 µM
  TGI: 16.2 µM
[8]
  GI50: 9.04 µM
  TGI: 26.4 µM
[9]
  GI50: 0.564 µM
  TGI: 6.99 µM
[10]
  GI50: 0.867 µM
  TGI: 7.81 µM

## CC1CN1CC(O)C(O)CN1CC1C (stereo not drawn)
[1]
  GI50: 2.02 µM
  TGI: > 100 µM
[2]
  GI50: 2.16 µM
  TGI: 28.7 µM
[3]
  GI50: 0.234 µM
  TGI: 3.15 µM
[4]
  GI50: 1.72 µM
  TGI: 7.08 µM
[5]
  GI50: 1.24 µM
  TGI: > 87.1 µM
[6]
  GI50: 2.52 µM
  TGI: 10.7 µM
[7]
  GI50: 6.18 µM
  TGI: > 100 µM
[8]
  GI50: 13.4 µM
  TGI: > 85.1 µM
[9]
  GI50: 8.86 µM
  TGI: > 88.6 µM
[10]
  GI50: 0.053 µM
  TGI: > 100 µM

## CCS(=O)(=O)c1ccc(OC)c(Nc2ncc(-c3cccc(OC)c3)o2)c1
[1]
  GI50: 4.34 µM
  TGI: > 25 µM
[2]
  GI50: 14.6 µM
  TGI: > 25 µM
[3]
  GI50: 13.5 µM
  TGI: > 25 µM
[4]
  GI50: 8.58 µM
  TGI: 22.5 µM
[5]
  GI50: 9.38 µM
  TGI: > 25 µM
[6]
  GI50: 9.92 µM
  TGI: > 25 µM
[7]
  GI50: 13.5 µM
  TGI: > 25 µM
[8]
  GI50: 9.03 µM
  TGI: > 25 µM
[9]
  GI50: > 16.5 µM
  TGI: > 25 µM
[10]
  GI50: 9.33 µM
  TGI: 24.3 µM

## Cc1ccc(S(=O)(=O)n2c(-c3ccccc3)c(-c3ccccc3)c3ccccc32)cc1
[1]
  TGI: > 100 µM
[2]
  TGI: > 100 µM
[3]
  TGI: > 100 µM
[4]
  TGI: > 100 µM
[6]
  TGI: > 100 µM
[7]
  TGI: > 100 µM
[8]
  TGI: > 100 µM
[9]
  TGI: > 100 µM
[10]
  TGI: > 100 µM
